Results reported in US20240325398A1, “COMBINATION THERAPIES” (Infinity Pharmaceuticals, Inc., priority 2014, published 2024).

Tests used:
DOHH2 = test: Compound 1 with dexamethasone, CellTiter-Glo viability 72 h, combination index; assay type: cell-based; settings: DOHH2
Procedure: The effects of Compound 1 with dexamethasone were examined in a panel of cell lines. Cells were cultured and assayed as follows. Compound 1 was serially diluted with cell culture medium and various DMSO concentrations. The top concentration of Compound 1 exposed to cells was 3 uM for cell lines other than WSU-NHL and DOHH2. For WSU-NHL and DOHH2 cell lines, the top concentration of Compound 1 exposed to the cells was 0.3 uM. Dexamethasone was serially diluted in culture media and phosphate buffered saline (PBS). The top concentration of dexamethasone used on cells was 3 uM. Cells were at least 73% viable and were counted and diluted for plating at a density of about 92,000 cell/mL, 130 uL cells per well in 96 well plates for SUDHL6, Karpas 422, SUDHL4, WSU-NHL, RL, and DOHH2 cell lines. The SUDHL10 cell line was plated at a density of about 46,000 cells/mL, 130 uL cells per well in 96 well plates.
Various concentrations of Compound 1 and various combinations of dexamethasone were added to various wells of cells. Single agents (Compound 1 or dexamethasone alone) were also added to some wells of cells. Cells were incubated with compounds for 72 hours. To assay for effects of the compounds on cell viability, a CellTiter-Glo® luminescent cell viability assay (commercially available) was used. To each plate of cells, 100 uL CellTiter-Glo reagent was added, incubated, and luminescence quantified using a […].
The results for cell line DOHH2 are depicted in FIG. 11 and Table 11. […] Table 11 depicts combination index (CI) values for different combinations of dexamethasone/Compound 1 concentrations.

OCI-Ly7 = test: Combination study, ATPLite 72 h, dose matrix (Synergy Score, CI50)
[1] = Tolerability and pharmacokinetics of Compound 1 with dexamethasone in non-tumor bearing mice; assay type: in vivo
Procedure: The effects of a combination of Compound 1 and dexamethasone were assessed in vivo in non-tumor bearing mice. Dexamethasone is an inducer of CYP2B6 and CYP3A4 and thus might be expected to decrease exposure of Compound 1. Tolerability of the combination was assessed in non-tumor bearing CD17.SCID female mice. Treatment was carried out for 14 days using the following treatment groups: 1) Vehicle 1 (5% NMP+95% PEG400)+Vehicle 2 (saline); 2) Compound 1 (50 mg/kg, QD, PO)+Vehicle 2; 3) Vehicle 1+Dex 1 (5 mg/kg, Q3D, IP); 4) Compound 1+Dex 1; 5) Vehicle 1+Dex 2 (1 mg/kg, Q3D, IP); 6) Compound 1+Dex 2. PEG400 refers to polyethylene glycol-400. NMP refers to N-methyl-2-pyrrolidone. Dex refers to dexamethasone. Q3D refers to administration every third day. PO refers to oral administration. IP refers to intraperitoneal administration. Plasma samples were collected on day 14 at the trough, 1, 2, 4, and 6 h post dose for pharmacokinetic analysis.

Question: Which “combination index (CI)” value (DOHH2; Compound 1 11.11111 nM + Dexamethasone 12.34568 nM) does the source give for C[C@H](Nc1ncnc2[nH]cnc12)c1cc2cccc(Cl)c2c(=O)n1-c1ccccc1 [Compound 1, (S)-3-(1-((9H-purin-6-yl)amino)ethyl)-8-chloro-2-phenylisoquinolin-1(2H)-one] here?
Answer: The value was “E (E = >1)”.

Question: What about the “combination index (CI)” value (DOHH2; Compound 1 11.11111 nM + Dexamethasone 37.03704 nM) of the same molecule?
Answer: Its value is “C (C = 0.5 to <0.7)”.

Question: And the “combination index (CI)” value (DOHH2; Compound 1 11.11111 nM + Dexamethasone 111.1111 nM)?
Answer: Its value is “A (A = 0.0001 to <0.3)”.

Question: And the “combination index (CI)” value (DOHH2; Compound 1 11.11111 nM + Dexamethasone 333.3333 nM)?
Answer: The value was “A (A = 0.0001 to <0.3)”.

Question: And the “combination index (CI)” value (DOHH2; Compound 1 11.11111 nM + Dexamethasone 1000 nM)?
Answer: Its value is “A (A = 0.0001 to <0.3)”.

Question: What about the “combination index (CI)” value (DOHH2; Compound 1 11.11111 nM + Dexamethasone 3000 nM) of the same molecule?
Answer: Its value is “A (A = 0.0001 to <0.3)”.

Question: What about the “combination index (CI)” value (DOHH2; Compound 1 33.33333 nM + Dexamethasone 1.371742 nM) of the same molecule?
Answer: The value was “B (B = 0.3 to <0.5)”.

Question: And the “combination index (CI)” value (DOHH2; Compound 1 33.33333 nM + Dexamethasone 4.115226 nM)?
Answer: Its value is “B (B = 0.3 to <0.5)”.

Question: What about the “combination index (CI)” value (DOHH2; Compound 1 33.33333 nM + Dexamethasone 12.34568 nM) of the same molecule?
Answer: The value was “D (D = 0.7 to <1)”.

Question: And the “combination index (CI)” value (DOHH2; Compound 1 33.33333 nM + Dexamethasone 37.03704 nM)?
Answer: The value was “A (A = 0.0001 to <0.3)”.

Question: What about the “combination index (CI)” value (DOHH2; Compound 1 33.33333 nM + Dexamethasone 111.1111 nM) of the same molecule?
Answer: The value was “A (A = 0.0001 to <0.3)”.

Question: And the “combination index (CI)” value (DOHH2; Compound 1 33.33333 nM + Dexamethasone 333.3333 nM)?
Answer: Its value is “A (A = 0.0001 to <0.3)”.

Question: And the “combination index (CI)” value (DOHH2; Compound 1 33.33333 nM + Dexamethasone 1000 nM)?
Answer: Its value is “A (A = 0.0001 to <0.3)”.

Question: And the “combination index (CI)” value (DOHH2; Compound 1 33.33333 nM + Dexamethasone 3000 nM)?
Answer: The value was “A (A = 0.0001 to <0.3)”.

Question: And the “combination index (CI)” value (DOHH2; Compound 1 100 nM + Dexamethasone 1.371742 nM)?
Answer: The value was “B (B = 0.3 to <0.5)”.

Question: What about the “combination index (CI)” value (DOHH2; Compound 1 100 nM + Dexamethasone 4.115226 nM) of the same molecule?
Answer: Its value is “A (A = 0.0001 to <0.3)”.

Question: What about the “combination index (CI)” value (DOHH2; Compound 1 100 nM + Dexamethasone 12.34568 nM) of the same molecule?
Answer: The value was “C (C = 0.5 to <0.7)”.

Question: And the “combination index (CI)” value (DOHH2; Compound 1 100 nM + Dexamethasone 37.03704 nM)?
Answer: Its value is “A (A = 0.0001 to <0.3)”.

Question: And the “combination index (CI)” value (DOHH2; Compound 1 100 nM + Dexamethasone 111.1111 nM)?
Answer: Its value is “A (A = 0.0001 to <0.3)”.

Question: What about the “combination index (CI)” value (DOHH2; Compound 1 100 nM + Dexamethasone 333.3333 nM) of the same molecule?
Answer: Its value is “A (A = 0.0001 to <0.3)”.

Question: What about the “combination index (CI)” value (DOHH2; Compound 1 100 nM + Dexamethasone 1000 nM) of the same molecule?
Answer: Its value is “A (A = 0.0001 to <0.3)”.

Question: And the “combination index (CI)” value (DOHH2; Compound 1 100 nM + Dexamethasone 3000 nM)?
Answer: The value was “A (A = 0.0001 to <0.3)”.

Question: And the “combination index (CI)” value (DOHH2; Compound 1 300 nM + Dexamethasone 1.371742 nM)?
Answer: Its value is “B (B = 0.3 to <0.5)”.

Question: What about the “combination index (CI)” value (DOHH2; Compound 1 300 nM + Dexamethasone 4.115226 nM) of the same molecule?
Answer: Its value is “B (B = 0.3 to <0.5)”.

Question: And the “combination index (CI)” value (DOHH2; Compound 1 300 nM + Dexamethasone 12.34568 nM)?
Answer: The value was “A (A = 0.0001 to <0.3)”.

Question: What about the “combination index (CI)” value (DOHH2; Compound 1 300 nM + Dexamethasone 37.03704 nM) of the same molecule?
Answer: The value was “A (A = 0.0001 to <0.3)”.

Question: What about the “combination index (CI)” value (DOHH2; Compound 1 300 nM + Dexamethasone 111.1111 nM) of the same molecule?
Answer: The value was “A (A = 0.0001 to <0.3)”.

Question: And the “combination index (CI)” value (DOHH2; Compound 1 300 nM + Dexamethasone 333.3333 nM)?
Answer: Its value is “A (A = 0.0001 to <0.3)”.

Question: And the “combination index (CI)” value (DOHH2; Compound 1 300 nM + Dexamethasone 1000 nM)?
Answer: The value was “A (A = 0.0001 to <0.3)”.

Question: What about the “combination index (CI)” value (DOHH2; Compound 1 300 nM + Dexamethasone 3000 nM) of the same molecule?
Answer: Its value is “A (A = 0.0001 to <0.3)”.

Question: What about the CI50 growth inhibition (OCI-Ly7; combination with Dexamethasone) of the same molecule?
Answer: The CI50 growth inhibition was “S (S=0.01 to <0.5)”.

Question: And the CI50 inhibition (OCI-Ly7; combination with Dexamethasone)?
Answer: The CI50 inhibition was “S (S=0.01 to <0.5)”.

Question: What about the “Synergy Score growth inhibition” value (OCI-Ly7; combination with Dexamethasone) of the same molecule?
Answer: The value was “A3 (A3=>3)”.

Question: What about the “Synergy Score inhibition” value (OCI-Ly7; combination with Dexamethasone) of the same molecule?
Answer: Its value is “A2 (A2=1 to <3)”.

Question: And the CI50 growth inhibition (OCI-Ly7; combination with LEE011)?
Answer: The CI50 growth inhibition was “U (U=0.7 to <1)”.

Question: And the CI50 inhibition (OCI-Ly7; combination with LEE011)?
Answer: The CI50 inhibition was “W (W=≥1)”.

Question: What about the “Synergy Score growth inhibition” value (OCI-Ly7; combination with LEE011) of the same molecule?
Answer: The value was “A2 (A2=1 to <3)”.

Question: And the “Synergy Score inhibition” value (OCI-Ly7; combination with LEE011)?
Answer: Its value is “A1 (A1=0.0001 to <1)”.

Question: What about the CI50 growth inhibition (OCI-Ly7; combination with PCI-32765) of the same molecule?
Answer: The CI50 growth inhibition was “W (W=≥1)”.

Question: And the “Synergy Score growth inhibition” value (OCI-Ly7; combination with PCI-32765)?
Answer: The value was “A2 (A2=1 to <3)”.

Question: And the “Synergy Score inhibition” value (OCI-Ly7; combination with PCI-32765)?
Answer: The value was “A1 (A1=0.0001 to <1)”.

Question: What about the CI50 growth inhibition (OCI-Ly7; combination with PD-0332991) of the same molecule?
Answer: Its CI50 growth inhibition is “T (T=0.5 to <0.7)”.

Question: And the CI50 inhibition (OCI-Ly7; combination with PD-0332991)?
Answer: Its CI50 inhibition is “S (S=0.01 to <0.5)”.

Question: What about the “Synergy Score growth inhibition” value (OCI-Ly7; combination with PD-0332991) of the same molecule?
Answer: The value was “A2 (A2=1 to <3)”.

Question: What about the “Synergy Score inhibition” value (OCI-Ly7; combination with PD-0332991) of the same molecule?
Answer: Its value is “A2 (A2=1 to <3)”.

Question: And the “Compound 1 plasma exposure” value ([1]; 50 mg/kg Compound 1 PO in combination with dexamethasone 5 mg/kg Q3D, versus Compound 1 alone)?
Answer: Its value is “decrease”.

Question: And the “mean plasma concentration of Compound 1” value ([1]; 50 mg/kg Compound 1 plus 1 mg/kg dexamethasone (Q3D) versus 50 mg/kg Compound 1 alone)?
Answer: The value was “relatively similar”.

Question: What about the “decrease of Compound 1 plasma exposure” value ([1]; co-administered with higher dose of dexamethasone, 5 mg/kg) of the same molecule?
Answer: Its value is “about 30%”.

Question: And the “degree of Compound 1 exposure” value ([1]; single agent versus combination with dexamethasone 1 mg/kg)?
Answer: Its value is “similar”.
